Data published in patent US9000162B2, “5,8-difluoro-4-(2-(4-(heteroaryloxy)-phenyl)ethylamino)quinazolines and their use as agrochemicals” (Dow AgroSciences LLC, priority 2008, dated 2015).
Values after ≈ are worked out from the molar mass of the structure shown.

What was measured:
Format in all cases: in vivo
[1] = tested on: Colorado Potato Beetle (Leptinotarsa decemlineata, LPTNDE); experiment: Colorado Potato Beetle larvae on sprayed tomato leaves; conditions: foliar, 72 h, L2 larvae on sprayed tomato foliage, mortality after three days
Method: Formulated test compounds were diluted and sprayed onto leaves of tomato plants. When dry, plant foliage was removed from the plant and placed in 8-well agar trays. Five L2 Colorado potato beetle larvae were placed in each well, and the trays were sealed and incubated at 26° C. Mortality was evaluated after three days.

[2] = tested on: Puccinia recondita tritici (PUCCRT); experiment: Leaf rust of wheat foliar protectant test; conditions: 200 ppm foliar, inoculated one day after treatment, read-out: Activity against fungal diseases PUCCRT
Method in brief: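 Wheat seedlings (3–8 per pot) were sprayed to wet with formulated compound and inoculated the next day with an aqueous Puccinia recondita tritici spore suspension. Severity was converted to % control versus untreated inoculated plants and rated *** 80–100%, ** 50–79%, * 0–49%.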

[3] = tested on: Septoria tritici (SEPTTR); experiment: Septoria blotch of wheat foliar protectant test; conditions: Zymoseptoria tritici, read-out: Activity against fungal diseases SEPTTR; for pest or weed control at 25 ppm: foliar, Tested at 25 ppm (footnote b); for pest or weed control at 200 ppm: 200 ppm foliar, inoculated one day after treatment
Method in brief: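 Wheat seedlings (3-10 per pot) were sprayed to wet with formulated compound and inoculated next day with Septoria tritici spores. Plants then had 1 day in a dark dew chamber and 3 days in a lighted one before greenhouse incubation. Severity versus untreated inoculated plants gave percent control, scored *** 80-100%, ** 50-79%, * 0-49%.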

[4] = tested on: Magnaporthe grisea = Pyricularia oryzae (PYRIOR); experiment: whole plant or invertebrate; conditions: foliar, read-out: Activity against fungal diseases PYRIOR
[5] = tested on: Pseudoperonospora cubensis (PSPECU); experiment: Cucumber downy mildew foliar protectant test; conditions: 200 ppm foliar, inoculated one day after treatment, read-out: Activity against fungal diseases PSPECU
Method in brief: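 Cucumber seedlings, first true leaf 20-80% expanded, were sprayed to wetness with formulated compound and inoculated next day with aqueous sporangia suspension. Severity was converted to percent control versus untreated inoculated plants: ***=80-100%, **=50-79%, *=0-49%.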

Structure (SMILES) | LC90 [1] | pest or weed control at 200 ppm [2] | pest or weed control at 25 ppm [3] | pest or weed control at 200 ppm [4] | pest or weed control at 200 ppm [5] | pest or weed control at 200 ppm [3]
Fc1cccc2c(NCCc3ccc(Oc4ccc(C(F)(F)F)cn4)cc3)ncnc12 [reference compound] | 0.12 mg/L (≈ 0.28 µM) |  |  |  |  | 
N#Cc1cc(Oc2ccc(CCNc3ncnc4c(F)ccc(F)c34)cc2)ncc1Cl [Compound 126] |  | 80 to 100% | 80 to 100% | 80 to 100% | 80 to 100% | 
COc1cc(CCNc2ncnc3c(F)ccc(F)c23)ccc1Oc1cc(C(C)(F)F)ccn1 [Compound 16] |  | 80 to 100% |  | 80 to 100% | 80 to 100% | 80 to 100%
Fc1cc(CCNc2ncnc3c(F)ccc(F)c23)ccc1Oc1cc(C(F)(F)F)ccn1 [Compound 49] |  | 80 to 100% |  | 80 to 100% | 80 to 100% | 80 to 100%
Fc1ccc(F)c2c(NCCc3ccc(Oc4cc(Cl)ncn4)cc3)ncnc12 [Compound 127] |  | 80 to 100% |  | 80 to 100% | 80 to 100% | 0 to 49%
Nc1c(F)c(F)nc(Oc2ccc(CCNc3ncnc4c(F)ccc(F)c34)cc2)c1F [Compound 97] |  | 80 to 100% |  | 80 to 100% | 80 to 100% | 50 to 79%
Cc1cc(CCNc2ncnc3c(F)ccc(F)c23)ccc1Oc1c(Cl)cnc(C(F)(F)F)c1Cl [Compound 79] |  | 80 to 100% |  | 80 to 100% | 50 to 79% | 80 to 100%
COc1cc(C(F)(F)F)cc(Oc2ccc(CCNc3ncnc4c(F)ccc(F)c34)c(C)c2C)n1 [Compound 30] |  | 80 to 100% |  | 50 to 79% | 50 to 79% | 0 to 49%
Oc1ccc(CCNc2ncnc3c(F)ccc(F)c23)cc1F [Compound 47] |  | 0 to 49% |  | 50 to 79% | 0 to 49% | 0 to 49%
Fc1ccc(F)c2c(NCCc3ccc(Oc4cc(C(F)(F)F)ccn4)c(Br)c3)ncnc12 [Compound 39] |  | 80 to 100% | 80 to 100% | 80 to 100% | 80 to 100% | 
Fc1ccc(F)c2c(NCCOc3ccc(Oc4cc(C(F)(F)F)ccn4)cc3)ncnc12 [Compound 8] |  | 80 to 100% |  | 80 to 100% | 80 to 100% | 50 to 79%
Cc1c(CCNc2ncnc3c(F)ccc(F)c23)ccc(Oc2cc(C(F)(F)F)ccn2)c1C [Compound 26] |  | 80 to 100% |  | 50 to 79% | 80 to 100% | 80 to 100%
C=Cc1cc(CCNc2ncnc3c(F)ccc(F)c23)ccc1Oc1cc(C(F)(F)F)ccn1 [Compound 65] |  | 80 to 100% |  | 80 to 100% | 80 to 100% | 80 to 100%
N#Cc1ccc(Oc2ccc(CCNc3ncnc4c(F)cccc34)cc2)nc1 [reference compound] | < 3.1 mg/L |  |  |  |  | 
COc1cc(C(F)(F)F)cc(Oc2ccc(CCNc3ncnc4c(F)ccc(F)c34)cc2)n1 [Compound 9] |  | 80 to 100% |  | 80 to 100% | 80 to 100% | 50 to 79%
COc1cc(CCNc2ncnc3c(F)ccc(F)c23)ccc1Oc1ccnc(Cl)c1 [Compound 108] |  | 80 to 100% |  | 0 to 49% | 0 to 49% | 80 to 100%
Fc1ccc(F)c2c(NCCc3ccccc3)ncnc12 [Compound 94] |  | 80 to 100% |  | 0 to 49% | 80 to 100% | 50 to 79%
CC(F)(F)c1ccnc(Oc2ccc(CCNc3ncnc4c(F)ccc(F)c34)cc2)c1 [Compound 12] |  | 80 to 100% |  | 80 to 100% | 80 to 100% | 80 to 100%
Oc1ccc(CCNc2ncnc3c(F)ccc(F)c23)cc1Cl [Compound 87] |  | 0 to 49% |  | 0 to 49% | 50 to 79% | 0 to 49%

Structure (SMILES) | LC90 [1] | pest or weed control at 200 ppm [2] | pest or weed control at 25 ppm [3] | pest or weed control at 200 ppm [4] | pest or weed control at 200 ppm [5] | pest or weed control at 200 ppm [3]
Fc1cccc2c(NCCc3ccc(Oc4cc(C(F)(F)F)ccn4)cc3)ncnc12 [drawing 199, reference compound] | 3.1 to 12.5 mg/L (≈ 7.24 to 29.2 µM) |  |  |  |  | 
Fc1ccc(F)c2c(NCCc3ccc(Oc4c(Cl)cnc(C(F)(F)F)c4Cl)cc3)ncnc12 [Compound 95] |  | 80 to 100% |  | 80 to 100% | 80 to 100% | 80 to 100%
Fc1ccc(F)c2c(NC3Cc4ccc(Oc5ccc(C(F)(F)F)cn5)cc4C3)ncnc12 (centres unmarked) [Compound 111] |  | 80 to 100% |  | 80 to 100% | 80 to 100% | 80 to 100%
COc1cc(CCNc2ncnc3c(F)ccc(F)c23)ccc1Oc1ccnc(C(F)(F)F)n1 [Compound 113] |  | 80 to 100% | 80 to 100% | 80 to 100% | 80 to 100% | 
COc1cc(CCNc2ncnc3c(F)cc(F)c(F)c23)ccc1Oc1cc(C(F)(F)F)ccn1 [Compound 34] |  | 80 to 100% |  | 80 to 100% | 80 to 100% | 80 to 100%
Cc1cc(CCNc2ncnc3c(F)cc(F)c(F)c23)ccc1O [Compound 70] |  | 50 to 79% |  | 50 to 79% | 0 to 49% | 50 to 79%
Cc1cc(CCNc2ncnc3c(F)ccc(F)c23)ccc1Oc1nc(F)c(F)c(N)c1F [Compound 99] |  | 80 to 100% |  | 80 to 100% | 80 to 100% | 0 to 49%
Cc1cc(CCNc2ncnc3c(F)cc(F)c(F)c23)ccc1Oc1cc(C(F)(F)F)ccn1 [Compound 80] |  | 80 to 100% |  | 80 to 100% | 80 to 100% | 80 to 100%
Fc1ccc(F)c2c(NCCc3ccc(Oc4cnccc4C(F)(F)F)cc3)ncnc12 [Compound 43] |  | 80 to 100% |  | 50 to 79% | 80 to 100% | 80 to 100%
Fc1cc(CCNc2ncnc3c(F)cc(F)c(F)c23)ccc1Oc1cc(C(F)(F)F)ccn1 [Compound 67] |  | 80 to 100% |  | 80 to 100% | 80 to 100% | 80 to 100%
Fc1cc(CCNc2ncnc3c(F)ccc(F)c23)ccc1Oc1ncc(C(F)(F)F)cc1F [Compound 131] |  | 80 to 100% |  | 80 to 100% | 80 to 100% | 80 to 100%
Cc1cc(CCNc2ncnc3c(F)ccc(F)c23)ccc1Oc1cc(C(C)(F)F)ccn1 [Compound 64] |  | 80 to 100% |  | 80 to 100% | 80 to 100% | 80 to 100%
COc1cc(CCNc2ncnc3c(F)ccc(F)c23)ccc1Oc1ncc(F)c(C(F)(F)F)c1F [Compound 53] |  | 80 to 100% |  | 80 to 100% | 80 to 100% | 80 to 100%
COc1ccc(CCNc2ncnc3c(F)ccc(F)c23)c(F)c1 [Compound 72] |  | 80 to 100% | 0 to 49% | 80 to 100% | 80 to 100% | 
CCOc1cc(CCNc2ncnc3c(F)ccc(F)c23)ccc1Oc1cc(C(F)(F)F)ccn1 [Compound 60] |  | 80 to 100% |  | 80 to 100% | 80 to 100% | 80 to 100%
CCCOc1cc(CCNc2ncnc3c(F)ccc(F)c23)ccc1Oc1cc(C(F)(F)F)ccn1 [Compound 57] |  | 80 to 100% |  | 80 to 100% | 80 to 100% | 80 to 100%
COc1cc(CCNc2ncnc3c(F)ccc(F)c23)ccc1Oc1nc(F)c(F)c(N)c1F [Compound 98] |  | 80 to 100% |  | 80 to 100% | 80 to 100% | 0 to 49%
COc1cc(CCNc2ncnc3c(F)ccc(F)c23)ccc1Oc1ccc(C(F)(F)F)cn1 [Compound 52] |  | 80 to 100% |  | 80 to 100% | 80 to 100% | 80 to 100%
Fc1ccc(F)c2c(NC3Cc4ccc(Oc5cc(C(F)(F)F)ccn5)cc4C3)ncnc12 (centres unmarked) [Compound 110] |  | 80 to 100% |  | 80 to 100% | 80 to 100% | 80 to 100%
